According to patent US8101768B2, “Cyclic amine compound and pest control agent” (Nippon Soda Co., Ltd., priority 2004, dated 2012):

Key:
Assay type in all cases: in vivo
[1] = test system: organophosphorous agent resistant two-spotted spider mites; assay: Effect on Two-spotted Spider Mite (spray on kidney bean leaves); conditions: 125 ppm, water dispersible powder of Formulation Example 1 sprayed, 17 female adults, 25° C., 65% humidity, 3 days
In short: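 Mortality of adult females counted after 3 days at 25 °C and 65% humidity, following a 125 ppm spray of wettable-powder dilution onto infested 7–10-day-old bean seedlings (17 mites per leaf). Two replicates.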

[2] = test system: army worms; assay: Effect on Army Worm (artificial feed test); conditions: 10 μg of compound on 0.2 ml artificial feed, second instar, 25° C., 5 days
Protocol: Test feeds were prepared by filling plastic test tubes (capacity of 1.4 ml) with 0.2 ml of a commercial artificial feed (Insecta LFS, manufactured by Nosan Corporation). Each of 1% chemical compound solutions was prepared by using DMSO (containing 0.5% tween 20), which was then dropped into the surface of the feed in amount of 10 μg of the respective chemical compounds. 2 army worms, each of which was in the second instar, were inoculated into each of the test tubes, which were then sealed by their plastic caps. After they were left at 25° C. for 5 days, the rate of killed army worms and their feed consumptions were investigated. The test was repeated twice. […] 1-8, 1-9, 1-13, 1-15, 1-17, 1-22, 1-23, 1-27, 1-39, 1-45, 1-46, 1-59, 1-69, 1-72, 1-74, 1-75, 1-79, 1-80, 1-83, 1-95, 1-97, 1-981-100, 1-105, 1-108, 1-114, 1-133, 1-140, 1-147, 1-153, 1-165, 1-166, 1-181, 1-182, 1-183, 1-184, 1-187, 1-189, 1-190,

[3] = test system: acaricide resistant citrus red mites; assay: Effect on Citrus Red Mite (spray on mandarin orange leaves); conditions: 31 ppm, emulsifiable concentrate of Formulation Example 2 sprayed, 10 female adults, 25° C., 65% humidity
Protocol: Effect on Citrus Red Mite
10 female adults of acaricide resistant citrus red mites were inoculated onto leaves of a mandarin orange placed on dishes, onto which each of liquid agents, diluted with water so as to adjust the respective concentration of the chemical compounds to 31 ppm according to the formulation of the emulsifiable concentrate shown in the aforementioned Formulation Example 2, was sprayed by using a rotating sparge tower. After they were left in a thermostatic chamber at 25° C. in 65% humidity for 3 days, and were then removed from the dishes, eggs laid for 3 days were investigated whether they could grow to adults or not on the eleventh day. As the results, the following chemical compounds killed 100% of the adults. 1-13, 1-15, 1-22, 1-27, 1-45, 1-54, 1-59, 1-63, 1-66, 1-69, 1-71, 1-72, 1-75, 1-80, 1-88, 1-89, 1-92, 1-93, 1-94, 1-97, 1-98, 1-100, 1-102, 1-105, 1-108, 1-133, 1-136, 1-142, 1-153, 1-181, 1-183, 1-186, 1-187, 1-188, 1-189, 1-190, 1-191,

SMILES | rate of killed adults [1] | killed 100% of the army worms, or inhibited their feed consumptions, in comparison with a solvent control area, to 10% or less (effective) [2] | killed ... of the adults (eggs laid for 3 days investigated whether they could grow to adults on the eleventh day) [3]
FC(F)(F)c1ccc(N2CCC(Oc3cc(C(F)(F)F)cc(C(F)(F)F)c3)CC2)nc1 [1-79] | 100% | effective | –
Cc1cc(OC(F)(F)F)ccc1OC1CCN(c2ccc(C(F)(F)F)cn2)CC1 [1-46] | 100% | effective | –
FC(F)(F)c1ccc(N2CCC(Oc3ccc(C(F)(F)F)cc3OCCCl)CC2)nc1 [1-140] | 100% | effective | –
FC(F)(F)c1cnc(N2CCC(Oc3c(Cl)cc(OCC=C(Cl)Cl)c(Cl)c3Cl)CC2)c(Cl)c1 [1-165] | – | effective | –
COCOC(C)c1cc(C(F)(F)F)ccc1OC1CCN(c2ccc(C(F)(F)F)cn2)CC1 (stereo not shown) [1-184] | 100% | effective | –
CCCOc1cc(C(F)(F)F)ccc1OC1CCN(c2ccc(C(F)(F)F)cn2)CC1(C)C(=O)OCC (stereo not shown) [1-95] | – | effective | –
FC(F)(F)c1ccc(N2CCC(Oc3c(Cl)cc(C(F)(F)F)cc3Br)CC2)nc1 [1-17] | 100% | effective | –
FC(F)(F)c1ccc(N2CCC(Oc3ccc(Br)c(C(F)(F)F)c3)CC2)nc1 [1-23, 4-[4-bromo-3-(trifluoromethyl)phenoxy]-1-[5-(trifluoromethyl)-2-pyridyl]-piperidine] | 100% | effective | –
Fc1cc(C(F)(F)F)ccc1OC1CCN(c2ccc(C(F)(F)F)cn2)CC1 [1-8] | 100% | effective | –
FC(F)(F)c1ccc(N2CCC(Oc3c(Cl)cc(OCC=C(Cl)Cl)c(Cl)c3Cl)CC2)nc1 [1-166] | – | effective | –
FC(F)(F)c1ccc(OC2CCN(c3ncc(C(F)(F)F)cc3Cl)CC2)cc1 [1-83] | – | effective | –
O=[N+]([O-])c1ccc(OC2CCN(c3ccc(C(F)(F)F)cn3)CC2)cc1C(F)(F)F [1-39, 4-[4-nitro-3-(trifluoromethyl)phenoxy]-1-[5-(trifluoromethyl)-2-pyridyl]-piperidine] | – | effective | –
FC(F)(F)c1ccc(N2C[C@H]3CCC[C@@H](C2)[C@@H]3Oc2ccc(C(F)(F)F)cc2OCC2CC2)nc1 [7-103] | 100% | – | 100%
CCCOc1cc(C(F)(F)F)ccc1OC1C2CCCC1CN(c1ccc(C(F)(F)F)cn1)C2 (stereo not shown) [7-82, 90-[2-propoxy-4-(trifluoromethyl)phenoxy]-3-[5-(trifluoromethyl)-2-pyridyl]-3-azabicyclo[3.3.1]nonane] | 100% | – | 100%
C=CCOc1cc(C(F)(F)F)ccc1OC1C2CCC1CN(c1ccc(C(F)(F)F)cn1)C2 (stereo not shown) [5-149] | 100% | – | 100%
COCOCc1cc(C(F)(F)F)ccc1O[C@@H]1[C@@H]2CC[C@H]1CN(c1ccc(C(F)(F)F)cn1)C2 [5-69] | 100% | – | 100%
CCC(OC)OCc1cc(C(F)(F)F)ccc1OC1C2CCC1CN(c1ccc(C(F)(F)F)cn1)C2 (stereo not shown) [5-222] | 100% | – | 100%
CCCOc1cc(C(F)(F)F)ccc1OC1CCN(c2ccc(C(F)(F)F)cn2)CC1C (stereo not shown) [1-98] | 100% | – | 100%
